Laboratory results taken from patent US20230085307A1, “PYRIDAZINONE COMPOUND AND HERBICIDE” (NISSAN CHEMICAL CORPORATION, priority 2019, published 2023).

Columns and labels:
Japanese bulrush = assay: Test Example 1: herbicidal activity, application before weed generation under submerged conditions (Table 16, symbol B); format: in vivo, Japanese bulrush (Schoenoplectus juncoides); details: 320 g/ha applied herbicide
In short: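 Emulsion formulation, water-diluted to set dose, was put onto the flooded surface (4 cm depth, alluvial soil) the same day weeds were sown and 2.5-leaf rice transplanted. After 3 weeks at 25-30 °C under glass, each species was rated 0 (≤5% kill) to 5 (≥90% kill).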

late watergrass = assay: Test Example 2: herbicidal activity, application during weed generation under submerged conditions (Table 17, symbol A); format: in vivo, late watergrass (Echinochloa oryzicola); details: AAH 320 g/ha; application during weed generation, submerged conditions
In short: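 Herbicide emulsion, diluted with water to the chosen amount, is applied onto 4 cm floodwater over alluvial soil where the weeds were co-sown and raised at 25–30° C. Application timing: 1–2 leaves. Assessment: three weeks afterwards.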

barnyard grass [1] = assay: Test Example 3: herbicidal effect by foliage application, Wagner pot (Table 18, symbol H); format: in vivo, barnyard grass (Echinochloa crus-galli); details: 320 g/ha
In short: (§1)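 Plants were sown in alluvial soil held under 0.1–0.5 cm standing water and grown 14 days in a greenhouse at 25–30 °C. An emulsifiable formulation, water-diluted to the set dose, was then sprayed onto the foliage, and effects were scored three weeks later using previously defined criteria.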

Chinese sprangletop = assay: Test Example 3: herbicidal effect by foliage application, Wagner pot (Table 18, symbol D); format: in vivo, chinese sprangletop (Leptochloa chinensis); details: 320 g/ha
In short: as §1

southern crabgrass = assay: Test Example 4: herbicidal effect by soil treatment (Table 19, symbol F); format: in vivo, southern crabgrass (Digitaria ciliaris); details: amount of applied herbicide 320 g/ha
In short: (§2)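 Applied as a water-diluted emulsion, the compound was sprayed onto soil covering newly sown seeds. Evaluation came three weeks after application, in a greenhouse held at 25° C. to 30° C.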

green foxtail = assay: Test Example 4: herbicidal effect by soil treatment (Table 19, symbol G); format: in vivo, green foxtail (Setaria viridis); details: amount of applied herbicide 320 g/ha
In short: as §2

barnyard grass [2] = assay: Test Example 4: herbicidal effect by soil treatment (Table 19, symbol H); format: in vivo, barnyard grass (Echinochloa crus-galli); details: amount of applied herbicide 320 g/ha
In short: as §2

blackgrass [3] = assay: Test Example 4: herbicidal effect by soil treatment (Table 19, symbol J); format: in vivo, blackgrass (Alopecurus myosuroides); details: amount of applied herbicide 320 g/ha
In short: as §2

velvetleaf = assay: Test Example 4: herbicidal effect by soil treatment (Table 19, symbol M); format: in vivo, velvetleaf (Abutilon theophrasti); details: amount of applied herbicide 320 g/ha
In short: as §2

redroot pigweed = assay: Test Example 4: herbicidal effect by soil treatment (Table 19, symbol N); format: in vivo, redroot pigweed (Amaranthus retroflexus); details: amount of applied herbicide 320 g/ha
In short: as §2

lambsquarters [4] = assay: Test Example 4: herbicidal effect by soil treatment (Table 19, symbol O); format: in vivo, lambsquarters (Chenopodium album); details: amount of applied herbicide 320 g/ha
In short: as §2

chickweed = assay: Test Example 4: herbicidal effect by soil treatment (Table 19, symbol P); format: in vivo, common chickweed (Stellaria media); details: amount of applied herbicide 320 g/ha
In short: as §2

wild oat = assay: Test Example 5: herbicidal effect by foliage application, plastic box (Table 20, symbol I); format: in vivo, wild oat (Avena fatua); details: foliage application, 320 g/ha, three weeks after application
In short: (§3)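 Sow seeds spot-wise in sterilized diluvial soil; cover with ~1.5 cm soil. Grow 14 days in greenhouse, 25° C. to 30° C. Spray foliage with emulsion diluted to predetermined amount. Rate effect after 3 weeks.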

blackgrass [5] = assay: Test Example 5: herbicidal effect by foliage application, plastic box (Table 20, symbol J); format: in vivo, blackgrass (Alopecurus myosuroides); details: foliage application, 320 g/ha, three weeks after application
In short: as §3

Italian ryegrass = assay: Test Example 5: herbicidal effect by foliage application, plastic box (Table 20, symbol K); format: in vivo, Italian ryegrass (Lolium multiflorum); details: foliage application, 320 g/ha, three weeks after application
In short: as §3

windgrass = assay: Test Example 5: herbicidal effect by foliage application, plastic box (Table 20, symbol L); format: in vivo, windgrass (Apera spica-venti); details: foliage application, 320 g/ha, three weeks after application
In short: as §3

lambsquarters [6] = assay: Test Example 5: herbicidal effect by foliage application, plastic box (Table 20, symbol O); format: in vivo, lambsquarters (Chenopodium album); details: foliage application, 320 g/ha, three weeks after application
In short: as §3

| Compound | Herbicidal effect on B: Japanese bulrush (grade 0-5) (Japanese bulrush) | herbicidal effect rating, A: late watergrass (late watergrass) | herbicidal effect on H (barnyard grass), rating 0-5 (barnyard grass [1]) | herbicidal effect on D (Chinese sprangletop), rating 0-5 (Chinese sprangletop) | herbicidal effect rating, F: southern crabgrass (southern crabgrass) | herbicidal effect rating, G: green foxtail (green foxtail) | herbicidal effect rating, H: barnyard grass (barnyard grass [2]) | herbicidal effect rating, J: blackgrass (blackgrass [3]) | herbicidal effect rating, M: velvetleaf (velvetleaf) | herbicidal effect rating, N: redroot pigweed (redroot pigweed) | herbicidal effect rating, O: lambsquarters (lambsquarters [4]) | herbicidal effect rating, P: chickweed (chickweed) | herbicidal effect grade, I: wild oat (wild oat) | herbicidal effect grade, J: blackgrass (blackgrass [5]) | herbicidal effect grade, K: Italian ryegrass (Italian ryegrass) | herbicidal effect grade, L: windgrass (windgrass) | herbicidal effect grade, O: lambsquarters (lambsquarters [6]) |
| --- | --- | --- | --- | --- | --- | --- | --- | --- | --- | --- | --- | --- | --- | --- | --- | --- | --- |
| CCCOc1ccc(-c2sc3ccccc3c2-c2c(O)c(C)nn(C)c2=O)cc1 [1-019] | 5 (Herbicidal rate of 90% or more (almost completely withered)) | 3 (Herbicidal rate of 40% or more and less than 70%) | 5 (Herbicidal rate of 90% or more (almost completely withered)) | 4 (Herbicidal rate of 70% or more and less than 90%) | 0 (Herbicidal rate of 5% or less (almost no effect)) | 2 (Herbicidal rate of 20% or more and less than 40%) | 3 (Herbicidal rate of 40% or more and less than 70%) | 0 (Herbicidal rate of 5% or less (almost no effect)) | 0 (Herbicidal rate of 5% or less (almost no effect)) | 4 (Herbicidal rate of 70% or more and less than 90%) | 4 (Herbicidal rate of 70% or more and less than 90%) | 5 (Herbicidal rate of 90% or more (almost completely withered)) | 3 (Herbicidal rate of 40% or more and less than 70%) | 4 (Herbicidal rate of 70% or more and less than 90%) | 4 (Herbicidal rate of 70% or more and less than 90%) | 5 (Herbicidal rate of 90% or more (almost completely withered)) | 5 (Herbicidal rate of 90% or more (almost completely withered)) |
| Cc1nn(C)c(=O)c(-c2c(-c3ccc(OC(C)C)cc3)sc3ccccc23)c1O [1-020] | 5 (Herbicidal rate of 90% or more (almost completely withered)) | 2 (Herbicidal rate of 20% or more and less than 40%) | 5 (Herbicidal rate of 90% or more (almost completely withered)) | 1 (Herbicidal rate of 5% or more and less than 20%) | 0 (Herbicidal rate of 5% or less (almost no effect)) | 5 (Herbicidal rate of 90% or more (almost completely withered)) | 5 (Herbicidal rate of 90% or more (almost completely withered)) | 1 (Herbicidal rate of 5% or more and less than 20%) | 0 (Herbicidal rate of 5% or less (almost no effect)) | 0 (Herbicidal rate of 5% or less (almost no effect)) | 4 (Herbicidal rate of 70% or more and less than 90%) | 3 (Herbicidal rate of 40% or more and less than 70%) | 0 (Herbicidal rate of 5% or less (almost no effect)) | 4 (Herbicidal rate of 70% or more and less than 90%) | 3 (Herbicidal rate of 40% or more and less than 70%) | 5 (Herbicidal rate of 90% or more (almost completely withered)) | 2 (Herbicidal rate of 20% or more and less than 40%) |
| CCCC(=O)Oc1c(C)nn(C)c(=O)c1-c1c(-c2ccc(OC(C)C)cc2)sc2ccccc12 [1-021] | 5 (Herbicidal rate of 90% or more (almost completely withered)) | 2 (Herbicidal rate of 20% or more and less than 40%) | 5 (Herbicidal rate of 90% or more (almost completely withered)) | 1 (Herbicidal rate of 5% or more and less than 20%) | 0 (Herbicidal rate of 5% or less (almost no effect)) | 1 (Herbicidal rate of 5% or more and less than 20%) | 0 (Herbicidal rate of 5% or less (almost no effect)) | 0 (Herbicidal rate of 5% or less (almost no effect)) | 3 (Herbicidal rate of 40% or more and less than 70%) | 0 (Herbicidal rate of 5% or less (almost no effect)) | 0 (Herbicidal rate of 5% or less (almost no effect)) | 5 (Herbicidal rate of 90% or more (almost completely withered)) | 0 (Herbicidal rate of 5% or less (almost no effect)) | 1 (Herbicidal rate of 5% or more and less than 20%) | 3 (Herbicidal rate of 40% or more and less than 70%) | 0 (Herbicidal rate of 5% or less (almost no effect)) | 1 (Herbicidal rate of 5% or more and less than 20%) |
| CCCCOc1ccc(-c2sc3ccccc3c2-c2c(O)c(C)nn(C)c2=O)cc1 [1-024] | 5 (Herbicidal rate of 90% or more (almost completely withered)) | 4 (Herbicidal rate of 70% or more and less than 90%) | 5 (Herbicidal rate of 90% or more (almost completely withered)) | 4 (Herbicidal rate of 70% or more and less than 90%) | 0 (Herbicidal rate of 5% or less (almost no effect)) | 0 (Herbicidal rate of 5% or less (almost no effect)) | 3 (Herbicidal rate of 40% or more and less than 70%) | 0 (Herbicidal rate of 5% or less (almost no effect)) | 4 (Herbicidal rate of 70% or more and less than 90%) | 4 (Herbicidal rate of 70% or more and less than 90%) | 5 (Herbicidal rate of 90% or more (almost completely withered)) | 4 (Herbicidal rate of 70% or more and less than 90%) | 4 (Herbicidal rate of 70% or more and less than 90%) | 4 (Herbicidal rate of 70% or more and less than 90%) | 4 (Herbicidal rate of 70% or more and less than 90%) | 4 (Herbicidal rate of 70% or more and less than 90%) | 5 (Herbicidal rate of 90% or more (almost completely withered)) |
